System: VEEV Trinidad donkey, virus titer reduction
Test: log virus titer change, VEEV Trinidad donkey strain, secondary screen at 10 µM (AID 602411)
Details: stronger effect = lower value

| SMILES | log virus titer change |
| --- | --- |
| CN1CCN(Cc2nc3ccc([N+](=O)[O-])cc3c(=O)n2-c2ccccc2F)CC1 | < -5.2 |
| CCN1CCN(Cc2nc3ccc([N+](=O)[O-])cc3c(=O)n2-c2ccccc2F)CC1 | < -5.5 |

Reference: PubChem BioAssay AID602411 (Southern Research Specialized Biocontainment Screening …, 2012)
